Measurements: US20200109394A1, “COMPOSITIONS AND METHODS FOR ISOLATING CIRCULATING CELLS” (Prescient Pharma LLC, priority 2018, published 2020)

Key:
HT29 cells [1] = assay: Prussian blue iron staining of HT29 cells after incubation in medium with Fe2DG; type: cell-based, human; details: Fe2DG 1 mg/ml in DMEM no glucose with 10% FBS, two hours
Experimental: In this third Example, the differential ability of normal vs cancer cells (higher for malignant cells) to accumulate Iron (Fe) from Fe2DG added to medium was studied. For routine maintenance, HT29 cells (ATCC HTB-38) were grown in McCoy's 5 A complete growth medium (Cat. No. 30-2007; ATCC, Manassas, Va.) supplemented by 10% FBS, and 1× Penicillin/Streptomycin in an incubator at 37° C. and 5% CO2. Cells were passaged every 4 days. For Fe2DG treatments, HT29 cells (ATCC HTB-38) cells were grown in 25 cm^2 Nunclon Delta Surface flasks (Cat. No. 136196; Thermo Fisher Scientific, Waltham, Mass.) with McCoy's 5A complete medium and kept in an incubator at 37° C. and 5% CO2 until close to 75% confluence was reached. Then medium for both cell types was replaced by DMEM no glucose (ThermoFisher Cat. No. 11966025) supplemented by 10% FBS and Fe2DG 1 mg/ml for two hours. Then medium was removed and both flasks were stained by Prussian blue staining kit “Advanced testing Iron stain” (ThermoFisher Cat. No. 87006). Cells in the flasks were fixed by 10% Formalin, then rinsed by deionized water. Then the cells were stained by freshly prepared Working Iron Solution 30 minutes at room temperature. Then the cells were rinsed by deionized water and counterstain by Nuclear Red Satin Solution for 30 seconds. […]

WBC = assay: Effect on WBC of magnetic trapping in the HT29/whole blood mixture with Fe2DG (FACS); type: cell-based; details: Fe2DG 1 mg per 1 ml in human whole blood, RT 2 hours, 30 min inside round magnet
Experimental: 500 ul of HT29 suspension was added to 4 ml of fresh human volunteer whole blood. Fe2DG in final concentration 1 mg per 1 ml was added. The blood then was incubated in RT for 2 hours. Then the blood was divided on two portions. Both portions were placed inside of plastic tube (10 cm long, 3 mm outside diameter). One tube was placed inside of the round magnet, another tube was outside of the magnet. After incubation for 30 min; contents of both tubes were gently pushed out. RBC were lysed by adding 4 volumes of distillate water for 30 sec. Then PBS was added to restore osmolarity. After centrifugation for 5 min 1000 rpm and removing of supernatant, the pellet was resuspended in 0.5 ml of PBS and introduced for analysis by BD FACS Aria III

A375-eGFP-puro cells = assay: Enrichment of A375-eGFP-puro cells incubated with Fe2DG by external magnet from mixture with whole human blood (FACS); type: cell-based; details: Fe2DG 1 mg per 1 ml in human whole blood, RT 2 hours, 30 min in magnet; fraction #2 (tube out of magnet) vs fraction #1, FACS
Experimental: In this second Example, the effect of external magnet on suspension A375-eGFP-puro cells (human melanoma) in whole blood after adding of Fe2DG was studied.
A375-eGFP-puro cells (Imanis Life Science) has enhanced Green Fluorescent Protein as a reporter. And can be detected by fluorescent microscope of FACS because of green fluorescence.
For routine maintenance, A375-eGFP-puro cells were grown in DMEM complete growth medium (Cat. No. 30-2002; ATCC, Manassas, Va.) supplemented by 10% FBS, Penicillin/Streptomycin and 1 ug/ml Puromycin in an incubator at 37° C. and 5% CO2. Cells were passaged every 4 days. The cells were detached from flasks using trypsin and re-suspended in 5 mL of fresh DMEM medium.
500 ul of A375-eGFP-puro cells suspension was added to 4 ml of fresh human volunteer whole blood. Fe2DG in final concentration 1 mg per 1 ml was added. The blood then was incubated in RT for 2 hours. Then the blood was placed inside of plastic tube (10 cm long, 3 mm outside diameter). The tube was placed inside of the round magnet. After incubation for 30 min; 0.1 ml of the blood was gently pushed through the tube and through the magnet. […] After centrifugation for 5 min 1000 rpm and removing of supernatant, the pellet was resuspended in 0.5 ml of PBS and introduced for analysis by BD fluorescence-activated cell sorter (FACS) Aria III.

HT29 cells [2] = assay: Depletion of Fe2DG-loaded HT29 cells by external magnet from mixture with whole blood (FACS); type: cell-based; details: Fe2DG 1 mg per 1 ml in human whole blood, RT 2 hours, 30 min inside round magnet vs outside
Experimental: In this Example, the effect of external magnet on suspension HT29 cells (human adenocarcinoma) in whole blood after adding of Fe2DG was studied. For routine maintenance, HT29 cells (ATCC HTB-38) were grown in McCoy's 5A complete growth medium (Cat. No. 30-2007; ATCC, Manassas, Va.) supplemented by 10% FBS, and 1× Penicillin/Streptomycin in an incubator at 37° C. and 5% CO2. Cells were passaged every 4 days. The cells were detached from flasks using trypsin and re-suspended in 5 mL of fresh McCoy's 5A medium. Suspension of HT29 cells (ATCC HTB-38) was count by Countess automated cell counter (Invitrogen). Results: total 1.5×10^6/ml, live cells 1.4×10^6/ml, dead cells 1.3×10^5/ml, Viability 91% Cells were stained by BCECF AM (Life technologies Ref # B1150) intracellular fluorescent dye, according manufacturer instructions. 1 mg of BCECF AM (Invitrogen) was dissolved in 1 ml of DMSO and 10 aliquots were prepared. 1 aliquot was dissolved in 10 ml of Hank's Balanced Salt Solution to make working concentration (0.016 mM). Working solution of BCECF AM was added to HT29 cells suspension (5 ml of BCECF AM 5 ml of HT29 cells suspension in medium) and incubated in room temperature for 30 minutes in the dark. 500 ul of HT29 suspension was added to 4 ml of fresh human volunteer whole blood. Fe2DG in final concentration 1 mg per 1 ml was added. The blood then was incubated in RT for 2 hours. […]

[3] = tested on: CRL-1790 cells (human fibroblasts); assay: Prussian blue iron staining of CRL-1790 cells after incubation in medium with Fe2DG; type: cell-based; details: Fe2DG 1 mg/ml in DMEM no glucose with 10% FBS, two hours
Experimental: In this third Example, the differential ability of normal vs cancer cells (higher for malignant cells) to accumulate Iron (Fe) from Fe2DG added to medium was studied. For routine maintenance, CCD 841 CoN human colon fibroblast cells (CRL-1790; ATCC, Manassas, Va.) were grown in EMEM complete growth medium (Cat. No. 30-2003; ATCC, Manassas, Va.) supplemented by 10% FBS, and 1× Penicillin/Streptomycin in an incubator at 37° C. and 5% CO2. Cells were passaged every 4 days. For Fe2DG treatments, CCD 841 CoN cells were grown in 25 cm^2 Nunclon Delta Surface flasks (Cat. No. 136196; Thermo Fisher Scientific, Waltham, Mass.) with EMEM complete medium and kept in an incubator at 37° C. and 5% CO2 until close to 75% confluence was reached. Then medium for both cell types was replaced by DMEM no glucose (ThermoFisher Cat. No. 11966025) supplemented by 10% FBS and Fe2DG 1 mg/ml for two hours. Then medium was removed and both flasks were stained by Prussian blue staining kit “Advanced testing Iron stain” (ThermoFisher Cat. No. 87006). Cells in the flasks were fixed by 10% Formalin, then rinsed by deionized water. Then the cells were stained by freshly prepared Working Iron Solution 30 minutes at room temperature. Then the cells were rinsed by deionized water and counterstain by Nuclear Red Satin Solution for 30 seconds. […]

HT29 cells [4] = assay: Depletion of HT29 cells loaded with Fe2DG by external magnet in McCoy's 5A medium (microscopy); type: cell-based, human; details: Fe2DG 1 mg per 1 ml in McCoy's 5A medium with 10% FBS, RT 1 hour, 30 min inside round magnet vs outside, Hematoxylin stain
Experimental: In this fourth Example, the effect of external magnet on suspension HT29 cells (human adenocarcinoma) in complete McCoy's 5A medium after adding of Fe2DG was studied. Suspension of HT29 cells (ATCC HTB-38) in McCoy's 5A medium with 10% of FBS was count by Countess automated cell counter (Invitrogen). Results: live cells 3.6×10^6/ml, dead cells 1.6×10^5/ml, Viability 96% Fe2DG was added to the cell suspension in final concentration 1 mg per 1 ml. Cells then were incubated in RT for 1 hour. Then the suspension was divided on two portions. Both portions were placed inside of plastic tube (10 cm long, 3 mm in diameter). One tube was placed inside of the round magnet, another tube was outside of the magnet. After incubation for 30 min; contains of both tubes were gently pushed out, and placed on the glass slide, and stained by Hematoxylin. Slides were examined under light microscope Olympus BX51 and pictures were taken using Olympus DP73 digital camera.

In the case of Fe (III)-2 deoxy D glucose [Fe2DG], the “accumulation of iron (Prussian blue stain) in cancer cells (HT29)” value (HT29 cells [1]) is reported as “significant accumulation of iron”, the “specificity of magnetic trapping: effect on WBC” value (WBC) is reported as “without affect WBC” and the “enrichment of A375-eGFP-puro cells in the second fraction (2nd)” value (A375-eGFP-puro cells) is reported as 18.5 times. For the same substance, the “depletion of BCECF AM stained HT29 cells (gate 4) in the sample pushed out of the tube inside the magnet” value (HT29 cells [2]) was “significant depletion”, the “accumulation of iron (Prussian blue stain) in normal human fibroblasts (CRL-1790)” value [3] was “practically no accumulation of Iron” and the “depletion of HT29 cells in the sample pushed out of the tube inside the magnet” value (HT29 cells [4]) was “significant depletion”.
